Assays:
[1] = octanol-water partition coefficient at pH 7.0; cited from earlier work
in vivo = conditions: rabbit, topical, 0.25 % w/v
[2] = Slit lamp and fundus exams after topical ocular dosing in rabbits; conditions: Example 1 formulation, topical twice-a-day to both eyes, treated eyes

concentration at 5 day (in vivo; pigmented, plasma): < 12.5 ng/mL
concentration at 5 day (in vivo; posterior vitreous): 0.99 nM
SMILES: COc1cc2nccc(Oc3ccc(NC(=O)C4(C(=O)Nc5ccc(F)cc5)CC4)cc3)c2cc1OC [cabozantinib]
Log P [1]: 3.0
slit lamp and fundus exams [2]: completely normal except for slight conjuctival follicle formation

— US10010610B2, “Compositions and methods for the treatment of intraocular neovascularization and/or leakage” (Retinal Therapies LLC, priority 2014, dated 2018)
